Test results as given in BindingDB's records for doi:10.1016/S0960-894X(01)80381-4 (n/a, 1994).

Test: Inhibition of 10 uM ADP-induced human gel filtered platelet aggregation with 0.1 mg/mL human fibrinogen

SMILES	IC50
O=C(O)CCN1Cc2ccc(C(=O)NCCC3CCNCC3)cc2C1=O [3-[1-Oxo-6-(2-piperidin-4-yl-ethylcarbamoyl)-1,3-dihydro-isoindol-2-yl]-propionic acid]	10000 µM
O=C(O)CCNC(=O)c1cccc(C(=O)NCC2CCNCC2)c1 [3-{3-[(Piperidin-4-ylmethyl)-carbamoyl]-benzoylamino}-propionic acid]	330 µM
O=C(O)CCNC(=O)c1ccc2c(c1)C(=O)N(CCC1CCNCC1)C2 [3-{[3-Oxo-2-(2-piperidin-4-yl-ethyl)-2,3-dihydro-1H-isoindole-5-carbonyl]-amino}-propionic acid(L-709780)]	25 µM
O=C(O)CCNC(=O)c1ccc2c(c1)C(=O)C(CCC1CCNCC1)C2 (centres undefined) [3-{[3-Oxo-2-(2-piperidin-4-yl-ethyl)-indane-5-carbonyl]-amino}-propionic acid]	2300 µM
